Columns and labels:
NOX2 = target: T1, NOX2 (Homo sapiens, UniProt P04839); assay: NOX2 activity assay: PMA-induced ROS in ATRA-differentiated HL-60 cells (WST-1 or Amplex Red/HRP probe); format: cell-based; details: for IC50: WST-1 probe, differentiated HL-60, 200 ng/mL PMA, read-out: Inhibitory ability (NOX2)
T1 construct: Used for the NOX2 activity assay was human leukemia 60 cells (HL-60), which are widely, universally used to assess NOX2 activity; endogenous in cells
T1 sequence (P04839 2-570 limits assumed): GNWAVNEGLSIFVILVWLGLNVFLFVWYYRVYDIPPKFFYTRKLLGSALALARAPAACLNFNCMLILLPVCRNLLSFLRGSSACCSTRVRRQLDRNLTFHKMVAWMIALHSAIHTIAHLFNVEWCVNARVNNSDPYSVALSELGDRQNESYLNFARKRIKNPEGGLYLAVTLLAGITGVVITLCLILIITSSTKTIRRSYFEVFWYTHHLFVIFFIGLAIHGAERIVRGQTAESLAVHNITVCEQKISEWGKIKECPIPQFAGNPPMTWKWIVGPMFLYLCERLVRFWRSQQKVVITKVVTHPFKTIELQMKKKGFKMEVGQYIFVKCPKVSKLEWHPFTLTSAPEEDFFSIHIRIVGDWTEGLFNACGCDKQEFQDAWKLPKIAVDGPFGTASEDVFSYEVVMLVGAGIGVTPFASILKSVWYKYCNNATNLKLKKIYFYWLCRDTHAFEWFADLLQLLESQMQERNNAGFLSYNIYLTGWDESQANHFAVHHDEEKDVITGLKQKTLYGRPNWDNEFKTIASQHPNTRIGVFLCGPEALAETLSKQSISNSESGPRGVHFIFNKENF
T1 sequence (P13498 2-195 partner limits assumed): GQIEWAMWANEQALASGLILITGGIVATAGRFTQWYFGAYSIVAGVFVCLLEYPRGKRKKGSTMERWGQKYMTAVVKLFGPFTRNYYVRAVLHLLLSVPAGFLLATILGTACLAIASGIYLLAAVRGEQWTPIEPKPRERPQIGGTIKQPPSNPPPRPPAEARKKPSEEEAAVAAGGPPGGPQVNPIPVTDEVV
In short: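 HL-60 cells differentiated with ATRA for 4 days, seeded at 3×10^4 cells/well and preincubated with compound for 60 min at 37 °C. ROS from 200 ng/mL PMA stimulation was followed for 60 min at 37 °C by WST-1 absorbance (450 nm) or Amplex Red/HRP fluorescence (Ex 560/Em 585 nm); DMSO vehicle control.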

[1] = Non-specific free radical scavenging: superoxide produced by xanthine/xanthine oxidase, measured by WST-1; format: biochemical; details: compound at 10 or 30 μM
Experimental: The scavenging activity that the effective compound in 10 or 30 μM scavenges the superoxide produced by xanthine/xanthine oxidase was measured by WST-1, the results of which are shown in Table 2.

Row | Compound | IC50 (NOX2) [µM] | NOX2 inhibitory ability, verbal rating (NOX2; WST-1, comment on Table 1) | scavenging of superoxide produced by xanthine/xanthine oxidase [1]
1 | CC12CC(NC(=O)N1c1cccc(C(=O)N3CCc4cccc(C(F)(F)F)c4C3)c1)c1cc(-c3ccoc3)ccc1O2 (centres unmarked) [Compound 28g, 8-(Furan-3-yl)-2-methyl-3-(3-(8-(trifluoromethyl)-1,2,3,4-tetrahydroisoquinoline-2-carbonyl)phenyl)-5,6-dihydro-2H-2,6-methanobenzo[g][1,3,5]oxadiazocin-4(3H)-one] | > 10 | – | –
2 | CC12CC(NC(=O)N1c1cccc(C(=O)N3CCc4cc(C(F)(F)F)ccc4C3)c1)c1cc(-c3ccoc3)ccc1O2 (centres unmarked) [Compound 28h, 8-(Furan-3-yl)-2-methyl-3-(3-(6-(trifluoromethyl)-1,2,3,4-tetrahydroisoquinoline-2-carbonyl)phenyl)-5,6-dihydro-2H-2,6-methanobenzo[g][1,3,5]oxadiazocin-4(3H)-one] | > 10 | – | –
3 | CC12CC(NC(=O)N1c1cccc(C(=O)N3CCc4ccccc4C3(C)C)c1)c1cc(-c3ccoc3)ccc1O2 (centres unmarked) [Compound 28j, 3-(3-(1,1-Dimethyl-1,2,3,4-tetrahydroisoquinoline-2-carbonyl)phenyl)-8-(furan-3-yl)-2-methyl-5,6-dihydro-2H-2,6-methanobenzo[g][1,3,5]oxadiazocin-4(3H)-one] | > 10 | excellent inhibitory ability | –
4 | CC12CC(NC(=O)N1c1cccc(C(=O)N3CCc4ncccc4C3)c1)c1cc(-c3ccoc3)ccc1O2 (centres unmarked) [Compound 28k, 8-(Furan-3-yl)-2-methyl-3-(3-(5,6,7,8-tetrahydro-1,6-naphthyridine-6-carbonyl)phenyl)-5,6-dihydro-2H-2,6-methanobenzo[g][1,3,5]oxadiazocin-4(3H)-one] | > 10 | – | –

The next lines start with results.

Row | IC50 (NOX2) [µM] | NOX2 inhibitory ability, verbal rating (NOX2; WST-1, comment on Table 1) | Compound | scavenging of superoxide produced by xanthine/xanthine oxidase [1]
5 | 1 to 10 | – | CC12CC(NC(=O)N1c1cccc(C(=O)N3CCc4ccccc4C3)c1)c1ccccc1O2 (racemic) [Compound 8a, 2-Methyl-3-(3-(1,2,3,4-tetrahydroisoquinoline-2-carbonyl)phenyl)-5,6-dihydro-2H-2,6-methanobenzo[g][1,3,5]oxadiazocin-4(3H)-one] | did not exhibit significant peroxide scavenging ability
6 | 1 to 10 | – | CC1(C)CN(C(=O)c2cccc(N3C(=O)NC4CC3(C)Oc3ccc(-c5ccoc5)cc34)c2)Cc2ccccc21 (centres unmarked) [Compound 28i, 3-(3-(4,4-Dimethyl-1,2,3,4-tetrahydroisoquinoline-2-carbonyl)phenyl)-8-(furan-3-yl)-2-methyl-5,6-dihydro-2H-2,6-methanobenzo[g][1,3,5]oxadiazocin-4(3H)-one] | –

From patent US20250382303A1, “NOVEL COMPOUND AS NADPH OXIDASE 2 INHIBITOR AND PHARMACEUTICAL COMPOSITION CONTAINING SAME” (DONGGUK UNIVERSITY INDUSTRY-ACADEMIC COOPERATION FOUNDATION, priority 2022, published 2025)
